Test results as given in patent US20070154452A1, “Therapeutic agent for pancreas cancer” (ORIENT CANCER THERAPY, priority 2004, published 2007).
Where a name gives a salt, the structure may show the parent alone.

Key:
Type in all cases: in vivo, human
IFNγ = IFNγ production of the patients' peripheral blood monocyte fraction (EIA); design: dose or concentration left out as unconfirmed; conditions: pancreas cancer, 8 cases, before and after Gemzar for three weeks then a week break, FIG. 3
Procedure: Firstly, a monocyte fraction is separated from blood for preparation. After heparinized peripheral blood is diluted twofold with Phosphate Buffer Saline (PBS) and mixed, the mixture is overlaid on Ficoll-Conray solution (specific gravity 1.077), centrifuged at […] for 20 minutes to collect a monocyte fraction. After washing it, RPMI-1640 medium added with 10% fetal bovine serum (FBS) is added and prepared such that the cell number becomes 1×10^6. Into 200 μl of the obtained cell suspension, Phytohemagglutinin (supplied by DIFCO) is added into a concentration of 20 μg/ml, then cultured it in a 96-well microplate in the presence of 5% CO2 at 37° C. for 24 hours to obtain a sample for measuring two kinds of cytokines in the cultured cell solution. The measurement of IFNγ was conducted by enzyme immunoassay (EIA method) using […] kit from BioSource Europe S. In practice, into a each well of a 96-well microplate, 50 μl of standard or the twofold dilution of prepared sample described above was dispensed, then 50 μl of anti-IFNγ antibody labeled with HRP was dispensed, and further allowed to react for 2 hours at room temperature with shaking. […] The amount of IFNγ is expressed as IU/ml.

IL-12 = IL-12 production of the patients' peripheral blood monocyte fraction (ELISA); conditions: pancreas cancer, 8 cases, before and after Gemzar 1000 mg/mm^2 for three weeks then a week break, FIG. 3
Procedure: Firstly, a monocyte fraction is separated from blood for preparation. After heparinized peripheral blood is diluted twofold with Phosphate Buffer Saline (PBS) and mixed, the mixture is overlaid on Ficoll-Conray solution (specific gravity 1.077), centrifuged at […] for 20 minutes to collect a monocyte fraction. After washing it, RPMI-1640 medium added with 10% fetal bovine serum (FBS) is added and prepared such that the cell number becomes 1×10^6. Into 200 μl of the obtained cell suspension, Phytohemagglutinin (supplied by DIFCO) is added into a concentration of 20 μg/ml, then cultured it in a 96-well microplate in the presence of 5% CO2 at 37° C. for 24 hours to obtain a sample for measuring two kinds of cytokines in the cultured cell solution. To measure the amount of IL-12, a measuring kit based on enzyme immunoassay (ELISA) available from, for example, R&D SYSTEMS and MBL is used, though well known clinical and biochemical examinations can be used. Herein, a measuring kit supplied by R&D SYSTEMS was used. In practice, into each well of a 96-well microplate, 50 μl of measuring diluent of Assay Diluent RD1F, and 200 μl of standard or sample prepared from the preparation method for measuring cytokines described above were dispensed, and then allowed it to stand and react at room temperature for 2 hours. […] The amount of IL-12 is expressed as pg/ml. […]

Th1/Th2 = Th1/Th2 before and after administration of Gemzar; conditions: pancreas cancer, 8 cases, before and after Gemzar 1000 mg/mm^2 for three weeks then a week break, FIG. 3
Source text: Gemcitabine hydrochloride (Gemzar™) is an anticancer agent developed by Eli Lilly and Company. This Gemzar was approved to apply for insurance for pancreas cancer in April in 2001. […] Inhibitory effects were also not observed in the ratios of NK cells (8 cases), perforin-producing NK cells (8 cases), NKT cells (8 cases) and perforin-producing NKT cells (8 cases) to total lymphocytes (FIG. 4).

NK cells and NKT cells = test: Ratios of NK, NKT and perforin-producing cells to total lymphocytes (flow cytometry); conditions: pancreas cancer, 8 cases, before and after Gemzar, FIG. 4
Procedure: The measurement of NKT cells having NKR-P1 can be conducted by measuring cell surface antigens (CD3 and CD161 ) which are specifically presented on the NKT cell surface. In particular, lymphocytes in peripheral blood are tested for cells of CD3 positive and CD161 positive [CD3 (+) and CD161 (+)]. Thus, CD3 and CD161 which are cell surface antigens on NKT cell are measured by Two Color assay which uses monoclonal antibodies and flow cytometry. Here, activated NKT cells mean that the ratio of NKT [CD3 (+) and CD161 (+)] cells in lymphocytes is 10% or more, and more preferably 16% or more. The ability of activating NKT cell means the function which can increase NKT cell ratio by 10% or more, and more preferably 16% or more, or which can further increase NKT cell ratio more than that before administering a certain substance. Likewise, [CD3 (−) and CD161 (+) ] means to assay for CD3 negative and CD161 positive cells. This method is useful in measurement of NK cells. In addition, CD8 (+) means to assay for CD8 positive cells. This method is useful in measurement of CTL activity. In the Examples, bloods from cancer patients were used, and cells in blood were separated into positive and negative for cell surface antigens, CD3, CD161 and CD8, and each cell ratio was measured by Two Color assay using flow cytometry following a conventional manner. At this time, monoclonal antibodies used against CD3 , CD161 and CD8 were supplied by Coulter or Becton & Dickinson respectively. For lymphocytes in peripheral blood, two of CD3 , CD161 and CD8 of cell surface antigens and perforin are measured by Three Color assay using flow cytometry following a conventional manner. Specifically, into a collected blood, a fixative solution is added to fix cells, then after adding a membrane permeabilizer, an anti-perforin antibody (supplied by Pharmingen) is added for reaction, further secondary antibody labeled with PRE-Cy5 (from DAKO) is added for reaction, then anti-CD3-PE (Coulter 6604627) antibody and anti-CD161-FITC (B-D) antibody are added for reaction, thereafter subjected to measurement by flow cytometry. They were abbreviated as P or PER in figures and tables.

Nc1ccn([C@@H]2O[C@H](CO)[C@@H](O)C2(F)F)c(=O)n1 [Gemzar, gemcitabine hydrochloride]
not observed: effects inhibiting cytokines: IFNγ (IFNγ) | effects inhibiting cytokines: IL-12 (IL-12) | effects inhibiting cytokines: Th1/Th2 (Th1/Th2) | inhibitory effects on ratio of NK cells to total lymphocytes (NK cells and NKT cells) | inhibitory effects on ratio of NKT cells to total lymphocytes (NK cells and NKT cells) | inhibitory effects on ratio of perforin-producing NK cells to total lymphocytes (NK cells and NKT cells) | inhibitory effects on ratio of perforin-producing NKT cells to total lymphocytes (NK cells and NKT cells)
